Data as given in PubChem BioAssay AID272 (DTP/NCI, 2004).
Values joined by “and” are separate entries in the source; they are usually repeats but may differ in a detail not shown here. Equal entries are not always repeated. Results filed as inconclusive are left out.

System: Lewis lung carcinoma i.m., BDF1 mice, T/C %
Assay: NCI In Vivo Anticancer Drug Screen. Data for tumor model Lewis Lung Carcinoma (intramuscular) in B6D2F1 (BDF1) mice
In short: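 Compound given to mice with transplantable tumours; survival or tumour size compared against the vehicle control group, reported as T divided by C.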

[1] = endpoint: median survival time, dose: 12.5 mg/kg/injection, schedule: Q01DX011 (ip), vehicle: saline, higher = longer survival
[2] = endpoint: median survival time, dose: 25.0 mg/kg/injection, schedule: Q01DX011 (ip), vehicle: saline, higher = longer survival
[3] = endpoint: median survival time, dose: 50.0 mg/kg/injection, schedule: Q01DX011 (ip), vehicle: saline, higher = longer survival
[4] = endpoint: median survival time, dose: 100.0 mg/kg/injection, schedule: Q01DX011 (ip), vehicle: saline, higher = longer survival

For `CN(N=O)C(=O)N[C@@H](C=O)[C@@H](O)[C@H](O)[C@H](O)CO`, the T/C (endpoint: mean tumor weight, dose: 12.5 mg/kg/injection, schedule: Q01DX011 (ip), vehicle: saline, higher = larger tumour) was 66 % of control, the T/C (endpoint: mean tumor weight, dose: 25.0 mg/kg/injection, schedule: Q01DX011 (ip), vehicle: saline, higher = larger tumour) was 95 % of control and the T/C (endpoint: mean tumor weight, dose: 100.0 mg/kg/injection, schedule: Q01DX011 (ip), vehicle: saline, higher = larger tumour) was 61 % of control. The T/C (endpoint: mean tumor weight, dose: 200.0 mg/kg/injection, schedule: Q01DX011 (ip), vehicle: saline, higher = larger tumour) was 74 % of control, the T/C [1] was 109 % of control and the T/C [2] was 95 % of control. For the same compound, the T/C [3] was 90 % of control and 100 % of control, the T/C [4] was 92 % of control and the T/C (endpoint: median survival time, dose: 200.0 mg/kg/injection, schedule: Q01DX011 (ip), vehicle: saline, higher = longer survival) was 121 % of control.
With `COc1ccc(C(=O)c2cc(OC)c(OC)c(OC)c2)cc1OC` the T/C (endpoint: mean tumor weight (est.), dose: 100.0 mg/kg/injection, schedule: Q01DX011 (ip), vehicle: saline with Tween-80, higher = larger tumour) was 34 % of control, the T/C (endpoint: mean tumor weight (est.), dose: 200.0 mg/kg/injection, schedule: Q01DX011 (ip), vehicle: saline with Tween-80, higher = larger tumour) was 51 % of control and the T/C (endpoint: mean tumor weight (est.), dose: 400.0 mg/kg/injection, schedule: Q01DX011 (ip), vehicle: saline with Tween-80, higher = larger tumour) was 43 % of control. The T/C (endpoint: median survival time, dose: 100.0 mg/kg/injection, schedule: Q01DX011 (ip), vehicle: saline with Tween-80, higher = longer survival) was 93 % of control, the T/C (endpoint: median survival time, dose: 200.0 mg/kg/injection, schedule: Q01DX011 (ip), vehicle: saline with Tween-80, higher = longer survival) was 89 % of control and the T/C (endpoint: median survival time, dose: 400.0 mg/kg/injection, schedule: Q01DX011 (ip), vehicle: saline with Tween-80, higher = longer survival) was 108 % of control.
In the case of `O=C(O)C1CSCN1` (configuration not stated), the T/C [1] was 118 % of control, the T/C [2] was 105 % of control and the T/C [3] was 97 % of control. For the same compound, the T/C [4] was 105 % of control.
With `CCCCCCCCCCCCn1c(C)nc2ccccc21` the T/C (endpoint: mean tumor weight (est.), dose: 0.63 mg/kg/injection, schedule: Q01DX011 (ip), vehicle: saline, higher = larger tumour) was 84 % of control, the T/C (endpoint: mean tumor weight (est.), dose: 1.25 mg/kg/injection, schedule: Q01DX011 (ip), vehicle: saline, higher = larger tumour) was 89 % of control and the T/C (endpoint: median survival time, dose: 0.63 mg/kg/injection, schedule: Q01DX011 (ip), vehicle: saline, higher = longer survival) was 104 % of control. For the same compound, the T/C (endpoint: median survival time, dose: 1.25 mg/kg/injection, schedule: Q01DX011 (ip), vehicle: saline, higher = longer survival) was 98 % of control.
`CS(=O)(=O)c1cc(C(F)(F)F)cc([N+](=O)[O-])c1Cl` was tested, and the T/C (endpoint: mean tumor weight (est.), dose: 25.0 mg/kg/injection, schedule: Q01DX011 (ip), vehicle: saline with Tween-80, higher = larger tumour) was 108 % of control, the T/C (endpoint: mean tumor weight (est.), dose: 50.0 mg/kg/injection, schedule: Q01DX011 (ip), vehicle: saline with Tween-80, higher = larger tumour) was 63 % of control and the T/C (endpoint: median survival time, dose: 25.0 mg/kg/injection, schedule: Q01DX011 (ip), vehicle: saline with Tween-80, higher = longer survival) was 115 % of control. The T/C (endpoint: median survival time, dose: 50.0 mg/kg/injection, schedule: Q01DX011 (ip), vehicle: saline with Tween-80, higher = longer survival) was 111 % of control.
For `S=P(N1CC1)(N1CC1)N1CC1`, the T/C (endpoint: median survival time, dose: 1.5 mg/kg/injection, schedule: Q01DX011 (ip), vehicle: water, higher = longer survival) was 92 % of control, the T/C (endpoint: median survival time, dose: 3.0 mg/kg/injection, schedule: Q01DX011 (ip), vehicle: water, higher = longer survival) was 110 % of control and 119 % of control and the T/C (endpoint: median survival time, dose: 6.0 mg/kg/injection, schedule: Q01DX011 (ip), vehicle: water, higher = longer survival) was 86 % of control.
In the case of `O=c1c(O)c(-c2ccc(O)c(O)c2)oc2cc(O)cc(O)c12`, the T/C (endpoint: median survival time, dose: 200.0 mg/kg/injection, schedule: Q02DX009 (ip), vehicle: saline, higher = longer survival) was 102 % of control.
`Nc1nc(=S)c2[nH]cnc2[nH]1` was tested, and the T/C (endpoint: mean tumor weight, dose: 0.12 mg/kg/injection, schedule: Q01DX011 (ip), vehicle: other, higher = larger tumour) was 105 % of control, the T/C (endpoint: mean tumor weight, dose: 0.25 mg/kg/injection, schedule: Q01DX011 (ip), vehicle: other, higher = larger tumour) was 93 % of control and the T/C (endpoint: mean tumor weight, dose: 0.5 mg/kg/injection, schedule: Q01DX011 (ip), vehicle: other, higher = larger tumour) was 76 % of control. For the same compound, the T/C (endpoint: median survival time, dose: 0.12 mg/kg/injection, schedule: Q01DX011 (ip), vehicle: other, higher = longer survival) was 97 % of control and 106 % of control, the T/C (endpoint: median survival time, dose: 0.25 mg/kg/injection, schedule: Q01DX011 (ip), vehicle: other, higher = longer survival) was 116 % of control and 121 % of control and the T/C (endpoint: median survival time, dose: 0.5 mg/kg/injection, schedule: Q01DX011 (ip), vehicle: other, higher = longer survival) was 116 % of control.
